Laboratory results from patent US20090138208A1, “IMMUNOGLOBULIN G BINDING POCKET” (GE HEALTHCARE BIO-SCIENCES AB, priority 2002, published 2009).
Where a name gives a salt, the structure may show the parent alone.

Target: human Fab of κ-type (Homo sapiens, UniProt P01834+P01857)
Experiment: STD NMR screening (1D saturation transfer difference) for binding to antibody
Design: key: 0 no; 1 weak; 2 strong signal
Details: 0.5 mM ligand; for NMR signal conc 1: 500 nM antibody, 298 K; for NMR signal conc 2: 100 nM antibody; for NMR signal conc 3: 20 nM antibody
Protocol: All NMR experiments were performed at 298 K on a Bruker Avance 500 MHz spectrometer. The 1D saturation transfer difference method (STD NMR) was used as screening assay (Mayer M. and Meyer B. 1999. Characterization of Ligand Binding by Saturation Transfer Difference NMR Spectroscopy. Angew. Chem., Int. Ed. 38: 1784-1788) using several antibody concentrations in order to differentiate between compounds with different binding strength (Peng J. W., Lepre C. A., Fejzo J., Abdul-Manan N. and Moore J. M. 2001. Nuclear Magnetic Resonance-Based Approaches for Lead Generation in Drug Discovery. Methods in Enzymology. 338: 202-230). The antibody used was a human Fab of κ-type. In all cases ligands were tested one-by-one. On-resonance irradiation was set at 0 ppm and off-resonance irradiation was set at −40 ppm. Irradiation time in each scan was 2 s and 16 K data points were collected with 1024 scans in total. Compounds for testing were dissolved in DMSOd6 to a concentration of 50 mM and 5 μL of the concentrated ligand solution was added to 495 μL buffer solution. The samples thus consisted of 0.5 mM ligand, 20 mM phosphate buffer, 100 mM NaCl and […] in D2O at pD 7.5, uncorrected reading on pH-meter.
Compounds were initially tested for binding with 0.5 μM antibody. Interesting ligands were further tested with protein concentrations of 100 or 20 nM. A one-dimensional ^1H-spectrum was acquired first and subsequently a saturation transfer difference (STD) spectrum was acquired. Each analysis took 60 minutes on the spectrometer. […] The analysis was setup for automation so that several samples could be analysed over night (usually 10-15 samples/night).
As many as 46 of the virtual screening hits were tested with NMR according to the procedure described above. The results from NMR screening together with additional compound data are compiled in Table 1 below. In total 24 compounds gave a positive result in the first round with the highest antibody concentration (500 nM). These 24 compounds were subjected to a second round with an antibody concentration of 100 nM. The 4 compounds showing the strongest signal in the second round were tested for binding in a third round with 20 nM antibody. Three of the compounds in the third round gave a positive result and where thus designated as the strongest binders to the antibody out of the 46 tested compounds.

human Fab of κ-type, sequence (P01857 with tags, fused parts or gaps, other chains not shown): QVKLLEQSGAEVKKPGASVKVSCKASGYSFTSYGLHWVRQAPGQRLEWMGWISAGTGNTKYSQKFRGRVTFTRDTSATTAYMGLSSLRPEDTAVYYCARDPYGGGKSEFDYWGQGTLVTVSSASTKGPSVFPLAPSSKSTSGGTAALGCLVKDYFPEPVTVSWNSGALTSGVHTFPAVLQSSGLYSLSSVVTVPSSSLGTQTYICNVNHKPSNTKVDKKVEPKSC

Row | Compound | NMR signal conc 1 | NMR signal conc 2 | NMR signal conc 3
1 | O=C1C=C(Cl)C(=O)N1c1ccccc1 [AB_0000930, 3-chloro-1-phenyl-pyrrole-2,5-dione] | 0 |  | 
2 | O=C1C=CC(=O)N1c1cccc(Cl)c1 [AB_0001090, n-(3-chlorophenyl)-maleimide] | 1 | 0 | 
3 | O=C(O)c1ccnn(-c2ccccc2)c1=O [AB_0001180, 3-oxo-2-phenyl-2,3-dihydro-4-pyridazinecarboxylic acid] | 0 |  | 
4 | Clc1ccc(COn2ccnc2)cc1Cl [AB_0001150, 1-[(3,4-dichlorobenzyl)oxy]-1h-imidazole] | 2 | 0 | 
5 | N#CCc1ccc(C(=O)c2ccccc2F)s1 [AB_0001010, 2-[5-(2-fluorobenzoyl)-2-thienyl]acetonitrile] | 2 | 2 | 2
6 | CCn1ccnc1CC1COc2ccccc2O1 (centres unmarked) [AB_0001070, imiloxan hydrochloride] | 1 | 1 | 
7 | Fc1cc(F)cc(Cc2nc(-c3cccs3)no2)c1 [AB_0001020, 5-(3,5-difluorobenzyl)-3-(2-thienyl)-1,2,4-oxadiazole] | 1 | 0 | 
8 | O=C(c1cccs1)c1cnc2ccccn2c1=O [AB_0001300, 3-(2-thienylcarbonyl)-4h-pyrido[1,2-a]pyrimidin-4-one] | 1 | 0 | 
9 | O=C(COc1ccc2ccccc2c1)ON1C(=O)CCC1=O [AB_0001230, (2-naphthoxy)acetic acid, n-hydroxysuccinimide ester] | 0 |  | 
10 | S=C(Oc1ccccn1)c1csc(C2COc3ccccc3O2)n1 (centres unmarked) [AB_0001260, 2-pyridyl 2-(2,3-dihydro-1,4-benzodioxin-2-yl)-1,3-thiazole-4-carbothioate] | 0 |  | 
11 | CCOC(=O)c1c[nH]c2ccccc2c1=O [AB_0001100, ethyl 4-oxo-1,4-dihydroquinoline-3-carboxylate] | 0 |  | 
12 | O=C1C(=O)N(c2ccccc2)C(=O)N1c1ccccc1 [AB_0000540, 1,3-diphenylparabanic acid] | 0 |  | 
13 | COc1ccc(CC(C)=O)cc1Br [AB_0000910, 3-bromo-4-methoxyphenylacetone] | 2 | 2 | 0
14 | FC(F)(F)c1cccc(-n2ccnc2)c1 [AB_0001220, 1-(3-trifluoromethylphenyl)imidazole] | 2 | 0 | 
15 | Clc1ccc(OCc2noc(CSc3ccccn3)n2)cc1 [AB_0001290, 3-[(4-chlorophenoxy)methyl]-5-[(2-pyridylthio)methyl]-1,2,4-oxadiazole] | 2 | 1 | 
16 | Sc1nnc(-c2csc(-c3ccccc3)n2)o1 [AB_0000760, 5-(2-phenyl-1,3-thiazol-4-yl)-1,3,4-oxadiazol-2-ylhydrosulfide] | 1 | 0 | 
17 | CC1CN=C(SCc2ccccc2)N1.Cl (centres unmarked) [AB_0001080, 2-(benzylthio)-5-methyl-4,5-dihydro-1h-imidazol-3-ium chloride] | 0 |  | 
18 | O=C(c1ccc2ccccc2c1)n1ccnc1 [AB_0000900, 1-(2-naphthoyl)imidazole] | 0 |  | 
19 | CC(C)=CC1=C(O)C(=O)c2ccccc2C1=O [AB_0001040, 2-hydroxy-3-(2-methyl-1-propenyl)-1,4-naphthoquinone] | 1 | 1 | 
20 | OC(CNCc1ccc(Cl)cc1)CSc1ccccc1 (centres unmarked) [AB_0001270, 1-[(4-chlorobenzyl)amino]-3-(phenylthio)propan-2-ol] | 1 | 0 | 
21 | O=C(Cc1ncon1)Nc1ccc(F)c(F)c1F [AB_0000630, n1-(2,3,4-trifluorophenyl)-2-(1,2,4-oxadiazol-3-yl)acetamide] | 0 |  | 
22 | O=C(c1ccccn1)C(O)c1ccccn1 (stereo not drawn) [AB_0000510, alpha-pyridoin] | 0 |  | 
23 | O=C1SC(Br)C(=O)N1c1ccccc1 (centres unmarked) [AB_0000880, 5-bromo-3-phenyl-thiazolidine-2,4-dione] | 0 |  | 

Row | Compound | NMR signal conc 1 | NMR signal conc 2 | NMR signal conc 3
24 | CCCCc1c(O)nc2ccccn2c1=O [AB_0000990, 3-butyl-2-hydroxy-4h-pyrido[1,2-a]pyrimidin-4-one] | 0 |  | 
25 | O=C1c2ccncc2C(=O)N1c1ccc(Cl)cc1 [AB_0000610, 2-(4-chlorophenyl)-2,3-dihydro-1h-pyrrolo[3,4-c]pyridine-1,3-dione] | 0 |  | 
26 | O=C1C(=Cc2ccccc2)C(=O)c2ccccc21 [AB_0000730, 2-benzylidene-1,3-indandione] | 0 |  | 
27 | CSCCNC(=O)c1nc2ccccc2c(=O)n1N [AB_0001130, 3-amino-n-[2-(methylthio)ethyl]-4-oxo-3,4-dihydroquinazoline-2-carboxamide] | 0 |  | 
28 | OC(CNCc1ccc(Cl)cc1Cl)C(F)(F)F (centres unmarked) [AB_0001170, 3-[(2,4-dichlorobenzyl)amino]-1,1,1-trifluoro-2-propanol] | 0 |  | 
29 | Cc1cc(C)nc(SCC(=O)Nc2ccc(F)c(Cl)c2)n1 [AB_0000580, n1-(3-chloro-4-fluorophenyl)-2-[(4,6-dimethylpyrimidin-2-yl)thio]acetamide] | 1 | 0 | 
30 | CN(C)C(=O)N(C)c1ccc(Cl)c(Cl)c1 [AB_0001250, 1-(3,4-dichlorophenyl)-1,3,3-trimethylurea] | 2 | 2 | 1
31 | c1ccc(CCn2cc(-c3ccncc3)cn2)cc1 [AB_0001190, 4-[1-(2-phenylethyl)-(1h)-pyrazol-4-yl]pyridine] | 2 | 0 | 
32 | O=C(CC1OC(=O)c2ccccc21)c1ccccn1 (centres unmarked) [AB_0000790, 3-[2-oxo-2-(2-pyridyl)ethyl]-1,3-dihydroisobenzofuran-1-one] | 0 |  | 
33 | N=c1sccn1CC(=O)c1ccc2ccccc2c1 [AB_0001060, 2-(2-imino-thiazol-3-yl)-1-naphthalen-2-yl-ethanone] | 2 | 0 | 
34 | COC(=O)NC(=O)c1nc(-c2ccccc2)c(C)o1 [AB_0000670, methyl n-[(5-methyl-4-phenyl-1,3-oxazol-2-yl)carbonyl]carbamate] | 2 | 0 | 
35 | O=Cc1cccc(C(F)(F)F)c1Cl [AB_0001030, 2-chloro-3-(trifluoromethyl)benzaldehyde] | 1 | 0 | 
36 | CC1(C)CC(=O)c2sc(NC(=O)c3cccnc3)nc2C1 [AB_0000750, n-(5,5-dimethyl-7-oxo-4,5,6,7-tetrahydro-benzothiazol-2-yl)-nicotinamide] | 0 |  | 
37 | COC(=O)C1OC1c1cc(Cl)ccc1OC (centres unmarked) [AB_0001240, methyl 3-(5-chloro-2-methoxyphenyl)-2,3-epoxypropionate] | 1 | 1 | 
38 | CC1=NN(c2cccc(Cl)c2)C(=O)C1 [AB_0000530, 1-(3-chlorophenyl)-3-methyl-2-pyrazolin-5-one] | 0 |  | 
39 | O=C(Nc1ccc(F)cc1)Oc1noc(-c2ccccc2)n1 [AB_0000740, 5-phenyl-1,2,4-oxadiazol-3-yl n-(4-fluorophenyl)carbamate] | 0 |  | 
40 | COC(=O)c1ccc2ccccc2c1O [AB_0001200, methyl 1-hydroxy-2-naphthoate] | 1 | 0 | 
41 | c1ccc(-c2nnc(-c3ccccn3)nn2)nc1 [AB_0000700, 3,6-di-2-pyridyl-1,2,4,5-tetrazine] | 0 |  | 
42 | OCC(Oc1ccccc1)c1ccccc1 (centres unmarked) [AB_0000810, 2-phenoxy-2-phenyl-1-ethanol] | 2 | 1 | 
43 | c1ccc(-c2nnc3ccccc3n2)cc1 [AB_0000600, 3-phenyl-1,2,4-benzotriazine] | 1 | 1 | 
44 | OC(CNCc1ccccc1)C(F)(F)F (centres unmarked) [AB_0001000, 3-(benzylamino)-1,1,1-trifluoro-2-propanol] | 1 | 0 | 
45 | O=C(Cc1ncon1)Nc1ccc(F)cc1F [AB_0000690, n1-(2,4-difluorophenyl)-2-(1,2,4-oxadiazol-3-yl)acetamide] | 0 |  | 
